Source: patent publication US12679804B2, “2-(3-ethynylbenzyl)-substituted heterocycle derivatives and related uses” (CENTESSA PHARMACEUTICALS (UK) LIMITED, priority 2021, dated 2026)
Where no end group is shown, it is not given here.

What was measured:
[1] = target: T1, human orexin type 2 receptor (hOX2R) (Homo sapiens, UniProt O43614); experiment: Orexin type 2 receptor agonist activity (FLIPR TETRA intracellular Ca2+ fluorescence); format: cell-based; conditions: for EC50: CHO cells expressing hOX2R, area of Ca2+ fluorescence over 2 min, read-out: hOx2 pEC50 (converted); for Emax at 10 µM: value at 10 μM, dilution buffer = 0%, 10 nM human orexin A = 100%, read-out: hOx2 Emax
T1 construct: expressed in transfected cells
T1 sequence (O43614 1-444): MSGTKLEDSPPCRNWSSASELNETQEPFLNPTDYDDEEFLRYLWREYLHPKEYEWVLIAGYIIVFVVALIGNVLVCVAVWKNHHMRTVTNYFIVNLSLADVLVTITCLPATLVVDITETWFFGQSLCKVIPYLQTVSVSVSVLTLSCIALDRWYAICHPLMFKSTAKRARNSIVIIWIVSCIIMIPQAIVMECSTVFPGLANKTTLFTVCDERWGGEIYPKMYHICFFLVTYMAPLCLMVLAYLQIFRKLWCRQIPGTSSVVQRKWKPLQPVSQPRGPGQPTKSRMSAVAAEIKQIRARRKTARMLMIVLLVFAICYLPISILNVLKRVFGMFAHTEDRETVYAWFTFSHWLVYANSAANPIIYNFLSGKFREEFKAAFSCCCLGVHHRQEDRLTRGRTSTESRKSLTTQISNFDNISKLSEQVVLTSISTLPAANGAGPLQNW
Method: Stable cell line generation. Obtainment of cells stably expressing either human orexin type 2 or human orexin type 1 receptor: to obtain a stable cell line the Orexin receptor cDNA was inserted into pcDNA3.1(+) plasmid vector and clones identified by G418 drug resistance selection. […] A single clone for OX2R-CHO and OX1R-CHO were grown in bulk and frozen to generate a cell bank for routine screening.
Measurement of orexin type 2 receptor agonist activity. Chinese hamster ovary (CHO) cells expressing human orexin type 2 receptor (hOX2R) or human orexin […] were seeded in each well of 384 well black clear bottom plates (BD Flacon) at 10,000 cells per well and cultured for 24 hr in an Ham's F12 (Gibco) medium containing 10% fetal calf serum (Sigma Aldrich) under the conditions of 37° C., 5% CO2. After removal of the medium, 50 μl of assay buffer 1 (0.1% bovine serum albumin (Sigma Aldrich), 20 mM HEPES (Molecular Dimensions), […] (Sigma Aldrich), 1× Calcium 5 dye (Molecular Devices) in Hank's balanced salt solution (Invitrogen)) was added, and the cells were incubated for 60 min under the conditions of 37° C., 5% CO2. A test compound was dissolved in dimethyl sulfoxide (Sigma Aldrich) to 10 mM, and then diluted with assay buffer 2 (20 mM HEPES, Hank's balanced salt solution, 0.1% bovine serum albumin). For the reaction, a test compound solution (10 μl) was added using Fluorescent Imaging Plate Reader TETRA (FLIPR TETRA: manufactured by Molecular Devices), a fluorescence value (excitation wavelength 488 nm, measurement wavelength 570 nm) of each well was measured every one second for 2 min, and the agonist activity was determined using the area of the fluorescence value as an indicator of intracellular Ca^2+ concentration. The agonist activity of the test compound was calculated assuming that the fluorescence value of the well added with only the dilution buffer was 0% and the fluorescence value of the well added with 10 nM human orexin A (Tocris) buffer was 100%. As used herein, Emax indicates the value at 10 μM concentration when orexin A is converted to a full agonist (maximum value of agonist activity: 100%).

mice = conditions: cited from earlier work
[2] = ICV, 3 nmol, orexin-neuron ablated mice

**Q.** Which results are given for `CCS(=O)(=O)NC1CCN(C(=O)C(C)C)C1Cc1cccc(C#CC2(C)COC2)c1` (racemic) [Compound 1-9, N-(1-isobutyryl-2-(3-((3-methyloxetan-3-yl)ethynyl)benzyl)pyrrolidin-3-yl)ethane-sulfonamide]?
**A.** EC50 [1]: > 0.1 µM; Emax at 10 µM [1]: ≥ 90%

**Q.** What does the source list for `CCS(=O)(=O)NC1CCN(C(=O)C(C)C)C1Cc1cccc(C#CC2COC2)c1` (racemic) [Compound 1-10, N-(1-isobutyryl-2-(3-(oxetan-3-ylethynyl)benzyl)pyrrolidin-3-yl)ethanesulfonamide]?
**A.** EC50 [1]: > 0.1 µM; Emax at 10 µM [1]: 70 to 80%

**Q.** Which results are given for `CCS(=O)(=O)NC1CCN(C(=O)C(C)C)C1Cc1cccc(C#CCOC)c1F` (racemic) [Compound 1-11, N-(2-(2-fluoro-3-(3-methoxyprop-1-yn-1-yl)benzyl)-1-isobutyrylpyrrolidin-3-yl)ethanesulfonamide]?
**A.** EC50 [1]: > 0.1 µM; Emax at 10 µM [1]: 70 to 80%

**Q.** Which EC50 [1] does the source give for `CCS(=O)(=O)NC1CCN(C(=O)C(C)C)C1Cc1cccc(C#CC(C)(C)C)c1` (racemic) [Compound 1-12, N-(2-(3-(3,3-dimethylbut-1-yn-1-yl)benzyl)-1-isobutyrylpyrrolidin-3-yl) ethane-sulfonamide] here?
**A.** Its EC50 is > 0.1 µM.

**Q.** And the Emax at 10 µM [1]?
**A.** Its Emax at 10 µM is ≥ 90%.

**Q.** Which results are given for `CCS(=O)(=O)NC1CCN(C(=O)C(C)C)C1Cc1cccc(C#CC2CCCC2)c1` (racemic) [Compound 1-13, N-(2-(3-(cyclopentylethynyl)benzyl)-1-isobutyrylpyrrolidin-3-yl)ethanesulfonamide]?
**A.** EC50 [1]: > 0.1 µM; Emax at 10 µM [1]: ≥ 90%

**Q.** For `CCS(=O)(=O)NC1CCN(C(=O)C(C)C)C1Cc1cccc(C#CC2CC2)c1` (racemic) [Compound 1-14, N-(2-(3-(cyclopropylethynyl)benzyl)-1-isobutyrylpyrrolidin-3-yl) ethanesulfonamide], which EC50 [1] is on record?
**A.** The EC50 was > 0.1 µM.

**Q.** What about the Emax at 10 µM [1] of the same compound?
**A.** Its Emax at 10 µM is ≥ 90%.

**Q.** Which EC50 [1] does the source give for `CCS(=O)(=O)NC1CCN(C(=O)N2CCC2)C1Cc1cccc(C#CC2CC2)n1` (racemic) [Compound 1-17, N-(1-(azetidine-1-carbonyl)-2-((6-(cyclopropylethynyl)pyridin-2-yl)methyl)pyrrolidin-3-yl)ethanesulfonamide] here?
**A.** The EC50 was > 0.1 µM.

**Q.** And the Emax at 10 µM [1]?
**A.** Its Emax at 10 µM is 80 to 90%.

**Q.** With `CCS(=O)(=O)NC1CCN(C(=O)N2CCC2)C1Cc1cccc(C#CC2CC2)c1F` (racemic) [Compound 1-18, N-(1-(azetidine-1-carbonyl)-2-(3-(cyclopropylethynyl)-2-fluorobenzyl)pyrrolidin-3-yl)ethanesulfonamide] as the compound, how does the Emax at 10 µM [1] read?
**A.** Its Emax at 10 µM is ≥ 90%.

**Q.** For `CCS(=O)(=O)NC1CCN(C(=O)C2CCC2)C1Cc1cccc(C#CC2CC2)c1F` (racemic) [Compound 1-19, N-(1-(cyclobutanecarbonyl)-2-(3-(cyclopropylethynyl)-2-fluorobenzyl)pyrrolidin-3-yl)ethanesulfonamide], which Emax at 10 µM [1] is on record?
**A.** Its Emax at 10 µM is ≥ 90%.

**Q.** Which Emax at 10 µM [1] does the source give for `CCS(=O)(=O)NC1CCN(C(=O)C(C)C)C1Cc1cccc(C#CC2CC2)c1F` (racemic) [Compound 1-20, N-(2-(3-(cyclopropylethynyl)-2-fluorobenzyl)-1-isobutyrylpyrrolidin-3-yl)ethanesulfonamide] here?
**A.** The Emax at 10 µM was ≥ 90%.

**Q.** Which results are given for `CCS(=O)(=O)NC1CCN(C(=O)C(C)(C)O)C1Cc1cccc(C#CC2CC2)c1` (racemic) [Compound 1-21, N-(2-(3-(cyclopropylethynyl)benzyl)-1-(2-hydroxy-2-methylpropanoyl)pyrrolidin-3-yl)ethanesulfonamide]?
**A.** EC50 [1]: > 0.1 µM; Emax at 10 µM [1]: 80 to 90%

**Q.** With `CCS(=O)(=O)NC1CCN(C(=O)C(C)(C)O)C1Cc1cccc(C#Cc2ccccc2)c1` (racemic) [Compound 1-22, N-(1-(2-hydroxy-2-methylpropanoyl)-2-(3-(phenylethynyl)benzyl)-pyrrolidin-3-yl)ethanesulfonamide] as the compound, how does the EC50 [1] read?
**A.** The EC50 was > 0.1 µM.

**Q.** And the Emax at 10 µM [1]?
**A.** Its Emax at 10 µM is ≥ 90%.

**Q.** What does the source list for `CC1(C#Cc2cccc(C[C@@H]3[C@H](NS(C)(=O)=O)CCCN3C(=O)[C@H]3CCO3)c2F)CC1` (single isomer, unassigned) [Compound 1-4]?
**A.** EC50 [1]: > 0.1 µM; Emax at 10 µM [1]: 60 to 70%

**Q.** For `CC1(C#Cc2cccc(C[C@H]3[C@@H](NS(C)(=O)=O)CCCN3C(=O)[C@H]3CCO3)c2F)CC1` (single isomer, unassigned) [Compound 1-5], which Emax at 10 µM [1] is on record?
**A.** The Emax at 10 µM was ≥ 90%.

**Q.** What does the source list for `CCS(=O)(=O)N[C@@H]1CCN(C(=O)N2CCC2)[C@@H]1Cc1cccc(C#CC2CC2)c1F` (single isomer, unassigned) [Compound 1-15]?
**A.** EC50 [1]: > 0.1 µM; Emax at 10 µM [1]: 70 to 80%

**Q.** With `CCS(=O)(=O)N[C@H]1CCN(C(=O)N2CCC2)[C@H]1Cc1cccc(C#CC2CC2)c1F` (single isomer, unassigned) [Compound 1-16] as the compound, how does the EC50 [1] read?
**A.** Its EC50 is 0.001 to 0.01 µM.

**Q.** And the Emax at 10 µM [1]?
**A.** Its Emax at 10 µM is ≥ 90%.

**Q.** With `CC1(C#Cc2cccc(C[C@H]3[C@@H](NS(C)(=O)=O)CCN3C(=O)[C@H]3CCO3)c2F)CC1` [Compound 1-1, N-((2S,3S)-2-(2-fluoro-3-((1-methylcyclopropyl)ethynyl)benzyl)-1-((R)-oxetane-2-carbonyl)pyrrolidin-3-yl)methanesulfonamide] as the compound, how does the Emax at 10 µM [1] read?
**A.** The Emax at 10 µM was ≥ 90%.

**Q.** Which Emax at 10 µM [1] does the source give for `CS(=O)(=O)N[C@H]1CCN(C(=O)[C@H]2CCO2)[C@H]1Cc1cccc(C#CC2(C(F)(F)F)CC2)c1F` [Compound 1-2, N-((2S,3S)-2-(2-fluoro-3-((1-(trifluoromethyl)cyclopropyl)ethynyl)benzyl)-1-((R)-oxetane-2-carbonyl)pyrrolidin-3-yl)methanesulfonamide] here?
**A.** The Emax at 10 µM was ≥ 90%.

**Q.** For `CC1(C#Cc2cccc(C[C@H]3[C@@H](NS(C)(=O)=O)CCN3C(=O)[C@H]3CCO3)c2)CC1` [Compound 1-3, N-((2S,3S)-2-(3-((1-methylcyclopropyl)ethynyl)benzyl)-1-((R)-oxetane-2-carbonyl)pyrrolidin-3-yl)methanesulfonamide], which Emax at 10 µM [1] is on record?
**A.** The Emax at 10 µM was ≥ 90%.

**Q.** With `CCNC(=O)N1CC[C@H](NS(C)(=O)=O)[C@@H]1Cc1cccc(C#CC2(C)CC2)c1F` [Compound 1-6, (2S,3S)—N-ethyl-2-(2-fluoro-3-((1-methylcyclopropyl)ethynyl)benzyl)-3-(methylsulfonamido)pyrrolidine-1-carboxamide] as the compound, how does the Emax at 10 µM [1] read?
**A.** Its Emax at 10 µM is ≥ 90%.

**Q.** Which Emax at 10 µM [1] does the source give for `CS(=O)(=O)N[C@H]1CCN(C(=O)N2CCC2)[C@H]1Cc1cccc(C#CC2CCC2)c1F` [Compound 1-7, N-((2S,3S)-1-(azetidine-1-carbonyl)-2-(3-(cyclobutylethynyl)-2-fluorobenzyl)-pyrrolidin-3-yl)methanesulfonamide] here?
**A.** Its Emax at 10 µM is ≥ 90%.

**Q.** Which EC50 [1] does the source give for `CC1(C#Cc2cccc(C[C@H]3[C@@H](NS(C)(=O)=O)CCN3C(=O)N3CCC3)c2F)CC1` [Compound 1-8, N-((2S,3S)-1-(azetidine-1-carbonyl)-2-(2-fluoro-3-((1-methylcyclopropyl)-ethynyl)benzyl)pyrrolidin-3-yl)methanesulfonamide] here?
**A.** Its EC50 is 0.001 to 0.01 µM.

**Q.** What about the Emax at 10 µM [1] of the same compound?
**A.** The Emax at 10 µM was ≥ 90%.

**Q.** For `COC(=O)N1CCC[C@H](NS(C)(=O)=O)[C@@H]1CO[C@H]1CC[C@@H](c2ccccc2)CC1` [TAK-925], which wakefulness (mice; subcutaneous, WT mice) is on record?
**A.** Its wakefulness is “modestly increases wakefulness”.

**Q.** Which results are given for “orexin A: orexin peptide cleaved from prepro-orexin; 10 nM human orexin A (Tocris) defines 100% agonist activity (QPLPDCCRQKTCSCRLYELLHGAGNHAAGILTL; ends and bridges not checked; cysteine pairing not given here; UniProt O43612 34-66, looked up)”?
**A.** cataplexy-like behavior (mice; [2]): decreases cataplexy-like behavior; time spent awake (mice; [2]): increase time spent awake
